Assay [1] deals with T1, human adenosine A1 receptor (Homo sapiens, UniProt P30542).
T1 construct: expressed in transfected cells; host or cells: CHO-K1 cells with a cAMP inducible beta-galactosidase reporter gene
T1 sequence (P30542 1-326): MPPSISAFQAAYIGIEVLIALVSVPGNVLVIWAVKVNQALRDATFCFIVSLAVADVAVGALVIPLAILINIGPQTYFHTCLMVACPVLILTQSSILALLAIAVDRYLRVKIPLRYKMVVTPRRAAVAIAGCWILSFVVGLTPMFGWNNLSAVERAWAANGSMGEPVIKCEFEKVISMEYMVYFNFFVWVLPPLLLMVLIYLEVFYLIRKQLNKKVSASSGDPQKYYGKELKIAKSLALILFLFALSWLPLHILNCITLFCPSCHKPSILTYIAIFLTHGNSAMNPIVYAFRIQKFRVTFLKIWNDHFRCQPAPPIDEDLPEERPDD
The experiment in a line: Adenosine A1 Receptor Functional Assay (A1GAL2). To be noted: CHO-K1 cells overexpressing human A1, cAMP inducible beta-galactosidase reporter, antagonist vs 4 nM r-PIA/1 uM Forskolin challenge. The format is cell-based. As for the experimental part: Adenosine A1 Receptor Functional Assay (A1GAL2)
To initiate the functional assay, cryopreserved CHO-K1 cells overexpressing the human adenosine A1 receptor and containing a cAMP inducible beta-galactosidase reporter gene were thawed, centrifuged, DMSO containing media removed, and then seeded with fresh culture media into clear 384-well tissue culture treated plates (BD #353961) at a concentration of 10K cells/well. Prior to assay, these plates were cultured for two days at 37° C., 5% CO2, 90% Rh. On the day of the functional assay, culture media was removed and replaced with 45 μL assay medium (Hams/F-12 Modified (Mediatech # 10-080CV) supplemented w/0.1% BSA). Test compounds were diluted and 11 point curves created at a 1000× concentration in 100% DMSO. Immediately after addition of assay media to the cell plates, 50 nL of the appropriate test compound antagonist or agonist control curves were added to cell plates using a Cartesian Hummingbird. Compound curves were allowed to incubate at room temperature on cell plates for approximately 15 minutes before addition of a 4 nM r-PIA (Sigma P4532)/1 uM Forskolin (Sigma F3917) agonist challenge (5 μL volume). A control curve of r-PIA in 1 uM Forskolin, a DMSO/Media control, and a single dose of Forskolin were also included on each plate. After additions, cell plates were allowed to incubate at 37° C., 5% CO2, 90% Rh for 5.5-6 hours. After incubation, media was removed, and cell plates were washed 1×50 μL with DPBS w/o Ca & Mg (Mediatech 21-031-CV). Into dry wells, 20 μL of 1× Reporter Lysis Buffer (Promega E3971 (diluted in dH2O from 5× stock)) was added to each well and plates frozen at −20° C. overnight. For β-galactosidase enzyme colorimetric assay, plates were thawed out at room temperature and 20 μL 2× assay buffer (Promega) was added to each well. Color was allowed to develop at 37° C., 5% CO2, 90% Rh for 1-1.5 hours or until reasonable signal appeared. The colorimetric reaction was stopped with the addition of 60 μL/well 1M sodium carbonate. Plates were counted at 405 nm on a SpectraMax Microplate Reader (Molecular Devices). Data was analyzed in Microsoft Excel and IC/EC50 curves were fit using a standardized macro.

For assay [2], the target named is T2, human adenosine A2A receptor (Homo sapiens, UniProt P29274).
T2 construct: expressed in transfected cells; host or cells: CHO-K1 cells with a cAMP inducible beta-galactosidase reporter gene
T2 sequence (P29274 whole entry): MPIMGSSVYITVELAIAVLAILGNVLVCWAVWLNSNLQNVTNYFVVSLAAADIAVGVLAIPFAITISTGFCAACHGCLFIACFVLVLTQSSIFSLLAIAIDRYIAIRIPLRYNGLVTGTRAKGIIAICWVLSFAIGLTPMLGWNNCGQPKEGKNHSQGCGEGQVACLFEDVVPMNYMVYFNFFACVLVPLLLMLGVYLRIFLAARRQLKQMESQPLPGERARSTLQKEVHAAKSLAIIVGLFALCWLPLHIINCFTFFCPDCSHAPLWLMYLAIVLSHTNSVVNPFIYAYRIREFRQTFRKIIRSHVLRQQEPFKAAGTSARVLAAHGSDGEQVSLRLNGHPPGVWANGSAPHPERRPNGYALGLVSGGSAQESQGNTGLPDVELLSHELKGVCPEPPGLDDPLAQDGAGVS
Nature of the assay: Adenosine A2A Receptor Functional Assay (A2AGAL2). The format is cell-based. To be noted: for IC50: CHO-K1 cells overexpressing human A2A, cAMP inducible beta-galactosidase reporter, antagonist vs 15 nM NECA challenge; for A1/A2A: ratio of A1Gal2 to A2AGal2 value. The method, then:
Adenosine A2A Receptor Functional Assay (A2AGAL2)
To initiate the functional assay, cryopreserved CHO-K1 cells overexpressing the human adenosine A2A receptor and containing a cAMP inducible beta-galactosidase reporter gene were thawed, centrifuged, DMSO containing media removed, and then seeded with fresh culture media into clear 384-well tissue culture treated plates (BD #353961) at a concentration of 10K cells/well. Prior to assay, these plates were cultured for two days at 37° C., 5% CO2, 90% Rh. On the day of the functional assay, culture media was removed and replaced with 45 μL assay medium (Hams/F-12 Modified (Mediatech # 10-080CV) supplemented w/0.1% BSA). Test compounds were diluted and 11 point curves created at a 1000× concentration in 100% DMSO. Immediately after addition of assay media to the cell plates, 50 nL of the appropriate test compound antagonist or agonist control curves were added to cell plates using a Cartesian Hummingbird. Compound curves were allowed to incubate at room temperature on cell plates for approximately 15 minutes before addition of a 15 nM NECA (Sigma E2387) agonist challenge (5 μL volume). A control curve of NECA, a DMSO/Media control, and a single dose of Forskolin (Sigma F3917) were also included on each plate. After additions, cell plates were allowed to incubate at 37° C., 5% CO2, 90% Rh for 5.5-6 hours. After incubation, media were removed, and cell plates were washed 1×50 μL with DPBS w/o Ca & Mg (Mediatech 21-031-CV). Into dry wells, 20 μL of 1× Reporter Lysis Buffer (Promega E3971 (diluted in dH2O from 5× stock)) was added to each well and plates frozen at −20° C. overnight. For β-galactosidase enzyme colorimetric assay, plates were thawed out at room temperature and 20 μL 2× assay buffer (Promega) was added to each well. Color was allowed to develop at 37° C., 5% CO2, 90% Rh for 1-1.5 hours or until reasonable signal appeared. The colorimetric reaction was stopped with the addition of 60 μL/well 1M sodium carbonate. Plates were counted at 405 nm on a SpectraMax Microplate Reader (Molecular Devices). Data was analyzed in Microsoft Excel and IC/EC50 curves were fit using a standardized macro.

Regarding `COCCN1CCN(c2ccc(-c3cccc4c3-c3nc(N)nc(-c5ccc(F)cc5)c3C4=O)cc2)CC1` [Example 8, 2-Amino-4-(4-fluoro-phenyl)-9-{4-[4-(2-methoxy-ethyl)-piperazin-1-yl]-phenyl}-indeno[1,2-d]pyrimidin-5-one], the IC50 in assay [1] came to 230 nM; in assay [2], 1.8 nM. Further, in assay [2], the A1/A2A stood at 127.778.

For `CC(C)N1CCN(c2ccc(-c3cccc4c3-c3nc(N)nc(-c5ccc(F)cc5)c3C4=O)cc2)CC1` [Example 9, 2-Amino-4-(4-fluoro-phenyl)-9-[4-(4-isopropyl-piperazin-1-yl)-phenyl]-indeno[1,2-d]pyrimidin-5-one], the 50% inhibitory concentration (IC50) in assay [1] was determined as 1800 nM; in assay [2] it was 16 nM. For the same compound, in assay [2], the A1/A2A came out at 112.5.

`Cc1cccc(-c2cccc3c2-c2nc(N)nc(-c4ccc(F)cc4)c2C3=O)c1` [Example 16, 2-Amino-4-(4-fluoro-phenyl)-9-m-tolyl-indeno[1,2-d]pyrimidin-5-one] returned an IC50 in assay [1] of 1800 nM. Further, in assay [2], the half-maximal inhibitory concentration (IC50) stood at 31 nM and the A1/A2A is listed as 58.0645.

`Nc1nc(-c2ccccc2)c2c(n1)-c1c(cccc1-c1ccccc1)C2=O` [Example 14, 2-Amino-4,9-diphenyl-indeno[1,2-d]pyrimidin-5-one]: half-maximal inhibition in assay [1] (IC50) required 570 nM. In assay [2], the half-maximal inhibitory concentration (IC50) worked out at 8.6 nM and the A1/A2A was 66.2791.

On to `N#Cc1ccc(-c2cccc3c2-c2nc(N)nc(-c4ccc(F)cc4)c2C3=O)cc1` [Example 10, 4-[2-Amino-4-(4-fluoro-phenyl)-5-oxo-5H-indeno[1,2-d]pyrimidin-9-yl]-benzonitrile], for which the IC50 in assay [1] worked out at 270 nM. For the same compound, in assay [2], half-maximal inhibition (IC50) was put at 2.6 nM and the A1/A2A was found to be 103.846.

In assay [1], `Nc1nc(-c2ccc(F)cc2)c2c(n1)-c1c(cccc1-c1ccc(N3CCN(CC4CC4)CC3)cc1)C2=O` [Example 7, 2-Amino-9-[4-(4-cyclopropylmethyl-piperazin-1-yl)-phenyl]-4-(4-fluoro-phenyl)-indeno[1,2-d]pyrimidin-5-one] returned an IC50 of 1100 nM. In assay [2], the IC50 was determined as 8.3 nM and the A1/A2A amounted to 131.69.

For the compound `Nc1nc(-c2ccc(F)cc2)c2c(n1)-c1c(cccc1-c1cccc(F)c1)C2=O` [Example 3, 2-Amino-4-(4-fluoro-phenyl)-9-(3-fluoro-phenyl)-indeno[1,2-d]pyrimidin-5-one], the 50% inhibitory concentration (IC50) in assay [1] worked out at 8900 nM; in assay [2], 26 nM. In addition, in assay [2], the A1/A2A was 342.308.

In assay [1], `CCN1CCN(c2ccc(-c3cccc4c3-c3nc(N)nc(-c5ccc(F)cc5)c3C4=O)cc2)CC1` [Example 12, 2-Amino-9-[4-(4-ethyl-piperazin-1-yl)-phenyl]-4-(4-fluoro-phenyl)-indeno[1,2-d]pyrimidin-5-one] registered a half-maximal inhibitory concentration (IC50) of 760 nM. For the same compound, in assay [2], the IC50 was 10 nM and the A1/A2A is on record as 76.

As for `CCC(CC)N1CCN(c2ccc(-c3cccc4c3-c3nc(N)nc(-c5ccc(F)cc5)c3C4=O)cc2)CC1` [Example 5, 2-Amino-9-{4-[4-(1-ethyl-propyl)-piperazin-1-yl]-phenyl}-4-(4-fluoro-phenyl)-indeno[1,2-d]pyrimidin-5-one], the IC50 in assay [1] was determined as 4200 nM. Moreover, in assay [2], half-maximal inhibition (IC50) required 23 nM and the A1/A2A was 182.609.

On to `Nc1nc(-c2ccc(F)cc2)c2c(n1)-c1c(cccc1-c1ccc(N3CCN(CCC(F)(F)F)CC3)cc1)C2=O` [Example 1, 2-Amino-4-(4-fluoro-phenyl)-9-{4-[4-(3,3,3-trifluoro-propyl)-piperazin-1-yl]-phenyl}-indeno[1,2-d]pyrimidin-5-one], for which the 50% inhibitory concentration (IC50) in assay [1] amounted to 5500 nM. In addition, in assay [2], half-maximal inhibition (IC50) required 1.8 nM and the A1/A2A is listed as 3055.56.

Consider `CC(C)CN1CCN(c2ccc(-c3cccc4c3-c3nc(N)nc(-c5ccc(F)cc5)c3C4=O)cc2)CC1` [Example 2, 2-Amino-4-(4-fluoro-phenyl)-9-[4-(4-isobutyl-piperazin-1-yl)-phenyl]-indeno[1,2-d]pyrimidin-5-one], for which 4200 nM corresponded to half-maximal inhibition in assay [1] (IC50). For the same compound, in assay [2], the 50% inhibitory concentration (IC50) is 7.1 nM and the A1/A2A came out at 591.549.

In turn, `COc1ccc(-c2cccc3c2-c2nc(N)nc(-c4ccccc4)c2C3=O)cc1` [Example 17, 2-Amino-9-(4-methoxy-phenyl)-4-phenyl-indeno[1,2-d]pyrimidin-5-one] displayed a half-inhibitory concentration (IC50) in assay [1] of 330 nM. Further, in assay [2], inhibition was half-maximal at 6.3 nM (IC50) and the A1/A2A is reported as 52.381.

In the case of `CC(C)CCN1CCN(c2ccc(-c3cccc4c3-c3nc(N)nc(-c5ccc(F)cc5)c3C4=O)cc2)CC1` [Example 11, 2-Amino-4-(4-fluoro-phenyl)-9-{4-[4-(3-methyl-butyl)-piperazin-1-yl]-phenyl}-indeno[1,2-d]pyrimidin-5-one], the concentration for half-maximal inhibition (IC50) in assay [1] is 1100 nM. Also, in assay [2], the IC50 worked out at 11 nM and the A1/A2A was 100.

With `CCC(C)N1CCN(c2ccc(-c3cccc4c3-c3nc(N)nc(-c5ccc(F)cc5)c3C4=O)cc2)CC1` (stereo not drawn) [Example 6, 2-Amino-9-[4-(4-sec-butyl-piperazin-1-yl)-phenyl]-4-(4-fluoro-phenyl)-indeno[1,2-d]pyrimidin-5-one], the IC50 in assay [1] was determined as 1400 nM. Also, in assay [2], half-maximal inhibition (IC50) required 9.8 nM and the A1/A2A is on record as 142.857.

In the case of `CCCN1CCN(c2ccc(-c3cccc4c3-c3nc(N)nc(-c5ccc(F)cc5)c3C4=O)cc2)CC1` [Example 15, 2-Amino-4-(4-fluoro-phenyl)-9-[4-(4-propyl-piperazin-1-yl)-phenyl]-indeno[1,2-d]pyrimidin-5-one], the figures for the IC50 in assay [1] and in assay [2] were 520 nM and 8.7 nM, respectively. In addition, the A1/A2A in assay [2] turned out to be 59.7701.

Take `Nc1nc(-c2ccc(F)cc2)c2c(n1)-c1c(cccc1-c1ccc(N3CCN(Cc4ccccc4)CC3)cc1)C2=O` [Example 4, 2-Amino-9-[4-(4-benzyl-piperazin-1-yl)-phenyl]-4-(4-fluoro-phenyl)-indeno[1,2-d]pyrimidin-5-one]: half-maximal inhibition in assay [1] (IC50) was put at 3100 nM. In assay [2], the midpoint of inhibition, the IC50, lay at 10 nM and the A1/A2A was 310.

Consider `Nc1nc(-c2ccc(F)cc2)c2c(n1)-c1c(cccc1-c1ccc(OCCN3CCOCC3)cc1)C2=O` [Example 13, 2-Amino-4-(4-fluoro-phenyl)-9-[4-(2-morpholin-4-yl-ethoxy)-phenyl]-indeno[1,2-d]pyrimidin-5-one], for which the 50% inhibitory concentration (IC50) worked out at 270 nM in assay [1] and 3.9 nM in assay [2]. In assay [2], the A1/A2A was 69.2308.

A word on the IC50: it is the midpoint of a concentration-inhibition curve.

Source of the values: patent US20110105492A1, “ARYL SUBSTITUTED ARYLINDENOPYRIMIDINES AND THEIR USE AS HIGHLY SELECTIVE ADENOSINE A2a RECEPTOR ANTAGONISTS” (priority 2009, published 2011).
